Reference: patent publication US4329453A, “Cephalosporin antibiotic” (Glaxo Group Limited, priority 1979, dated 1982)
Structures can show the parent of a compound that is named as a salt.

What was measured:
stability = format: physicochemical
Text: These properties render the hydrate of value in pharmaceutical use.
The salts for use in the preparation of the new pentahydrate according to the invention may be prepared by a process disclosed in the above-mentioned U.K. Patent Specification No. 2025398, i.e. by a process corresponding to the method above mentioned.

[1] = acute toxicity tests in mice; conditions: mouse, in vivo
indole-positive Proteus = experiment: activity against indole-positive Proteus; format: cell-based
Pseudomonas aeruginosa = experiment: experimental infections in mice with Pseudomonas aeruginosa; format: in vivo
Providence = experiment: activity against Providence; format: cell-based
[2] = tested on: β-lactamase-producing gram-negative strains; conditions: as described in U.K. Patent Specification No. 2025398; cited from earlier work
early clinical results = format: in vivo, human
nephrotoxicity in rats = format: in vivo; conditions: dosages of 2.0 g/kg
[3] = pharmacokinetic studies in human volunteers
[4] = especially at elevated temperatures, U.K. Patent Specification No. 2025398; cited from earlier work
Pseudomonas organisms = experiment: activity against Pseudomonas organisms; format: cell-based
bacteria [5] = experiment: antibiotic activity in vitro (broad spectrum); format: cell-based
gram-negative organisms = conditions: as described in U.K. Patent Specification No. 2025398; cited from earlier work
gram-negative bacteria = experiment: experimental infections in mice with gram-negative bacteria; format: in vivo
[6] = distribution and levels in small rodents after subcutaneous injection; format: in vivo
Serratia = experiment: activity against Serratia; format: cell-based
bacteria [7] = conditions: as described in U.K. Patent Specification No. 2025398; cited from earlier work
pathogenic bacteria = experiment: antibiotic properties of the crystalline pentahydrate; format: cell-based; conditions: compared with compound (I)

In the case of `CC(C)(O/N=C(\C(=O)N[C@@H]1C(=O)N2C(C(=O)[O-])=C(C[n+]3ccccc3)CS[C@H]12)c1csc(N)n1)C(=O)O` [bishydrochloride, (6R,7R)-7-[(Z)-2-(2-Aminothizol-4-yl)-2-(2-carboxyprop-2-oxyimino)acetamidol]-3-(1-pyridiniummethyl)ceph-3-em-4-carboxylate bishydrochloride], the “stability of crystalline bishydrochloride” value (stability; crystallised from acetone and formic acid) is reported as “highly stable”.

For `CC(C)(O/N=C(\C(=O)N[C@@H]1C(=O)N2C(C(=O)[O-])=C(C[n+]3ccccc3)CS[C@H]12)c1csc(N)n1)C(=O)O` [ceftazidime, (6R,7R)-7-[(Z)-2-(2-aminothiazol-4-yl)-2-(2-carboxyprop-2-oxyimino)acetamido]-3-(1-pyridiniummethyl)ceph-3-em-4-carboxylate], the LD50 [1] was over 6000 mg/kg, the “activity against indole-positive Proteus” value (indole-positive Proteus) was “excellent activity” and the “protection against strains of Pseudomonas aeruginosa” value (Pseudomonas aeruginosa) was “excellent protection”. The “protection compared with treatment with an aminoglycoside such as amikacin” value (Pseudomonas aeruginosa; versus amikacin) was “comparable”, the “activity against Providence” value (Providence) was “excellent activity” and the “activity against β-lactamase-producing gram-negative strains” value [2] was “unusually high activity”. The “antibiotic properties in the clinic” value (early clinical results) was “reproduces in the clinic the excellent antibiotic properties”, the nephrotoxicity (nephrotoxicity in rats) was “No nephrotoxicity has been observed” and the pharmacokinetic properties [3] was “good pharmacokinetic properties”. The serum half-life [3] was “long”, the “serum levels after injection” value ([3]; injection) was “high and long lasting serum levels” and the “stability of amorphous solid” value [4] was “not particularly satisfactory”. The “activity against Pseudomonas organisms” value (Pseudomonas organisms) was “excellent activity”, the bactericidal action (bacteria [5]; at concentrations close to the minimum inhibitory concentration) was “rapidly bactericidal” and the “effect of human serum on antibacterial properties” value (bacteria [5]; human serum) was “not impaired by human serum”. The “effect of increased inocula” value (bacteria [5]; increased inocula) was “low”, the “activity against gram-negative organisms” value (gram-negative organisms) was “unusually high activity” and the “treatment of experimental infections with gram-negative bacteria” value (gram-negative bacteria) was “successfully treated”. For the same compound, the “distribution in the bodies of small rodents” value [6] was “well distributed”, the “levels after subcutaneous injection” value ([6]; subcutaneous injection) was “useful therapeutic levels” and the “activity against Serratia” value (Serratia) was “excellent activity”. For the same compound, the “broad spectrum antibiotic activity” value (bacteria [7]) was “broad spectrum antibiotic activity”.

For `CC(C)(O/N=C(\C(=O)N[C@@H]1C(=O)N2C(C(=O)[O-])=C(C[n+]3ccccc3)CS[C@H]12)c1csc(N)n1)C(=O)O` [crystalline pentahydrate, (6R, 7R)-7-[(Z)-2-(2-aminothiazol-4-yl)-2-(2-carboxyprop-2-oxyimino)acetamido]-3-(1-pyridiniummethyl)ceph-3-em-4-carboxylate pentahydrate], the antibiotic properties (pathogenic bacteria) was “exhibits the antibiotic properties of the above-mentioned compound (I)”, the “crystallinity and stability (quality)” value (stability; new hydrate) was “superior quality” and the stability on storage (stability; stored at 50° C. for an extended period) was “remarkably stable”.
